{"source": "patent EP0623346B1", "about": "“INHIBITOR FOR METASTASIS OF MALIGNANT TUMOR” (TORAY INDUSTRIES, INC., priority 1992, dated 1994)", "key": {"Mouse Melanoma B16F10": {"tested_on": "Mouse Melanoma B16F10", "experiment": "Effectiveness on blood-mediated metastasis in mice of mouse melanoma B16F10 (lung metastasized nodes)", "format": "in vivo, C57/BL6 mice", "details": "for Number of Metastasized Nodes (mean ± standard error): simultaneously with 10^6 cells/mouse in tail vein, lung surface nodes counted after 14 days; for Metastasis Inhibition Rate (%): versus control group, p< 0.001", "protocol": "[Effectiveness on Blood-mediated Metastasis in Mice of Mouse Melanoma B16F10]\nLiquid-cultured mouse melanoma cells were transplanted in tail veins of C57/BL6 mice (6 weeks old, male) in an amount of 10^6 cells/mouse. Simultaneously, beraprost sodium salt was administered intravenously at a dose of 0.03 mg/kg, 0.1 mg/kg or 0.3 mg/kg. To a control group, phosphate buffer saline was administered. Fourteen days after the administration, mice were sacrificed and the lung was removed from each mouse. From the trachea communicating to the lung, 10% neutral buffered formalin solution was poured to inflate the lung, and the lung was immersed in 10% neutral buffered formalin solution to fix the lung. Several days later, each lung was divided and the number of the metastasized nodes on the surface of each leaf was counted with a stereoscopic microscope.\nThe statistical analysis of this example was carried out according to the student's t-test."}, "Acute toxicity test": {"experiment": "Acute toxicity test", "format": "in vivo, rats", "details": "for LD50: 14 days observation, 95% reliable limit in parentheses, Litchfield-Wilcoxon Method", "protocol": "Acute toxicity test was carried out using rats.\nThe numbers in parentheses indicate 95% reliable limit."}}, "note": "Marks after values point to notes of the source that are not given here.", "data": [{"smiles": "CC#CCC(C)[C@H](O)/C=C/[C@@H]1[C@H]2c3cccc(CCCC(=O)O)c3O[C@H]2C[C@H]1O", "note": "(mixture of isomers) [Beraprost, (±)-(1R*, 2R*, 3aS*, 8bS*)-2,3,3a,8b-tetrahydro-2-hydroxy-1-[(E)-(3S*)-3-hydroxy-4-methyl-1-octene-6-inyl]-1H-cyclopenta[b]benzofuran-5-butyric acid]", "values": [{"measurement": "Number of Metastasized Nodes (mean ± standard error)", "setting": "Mouse Melanoma B16F10; 0.03 mg/kg intravenously", "result": "204 ± 24"}, {"measurement": "Metastasis Inhibition Rate (%)", "setting": "Mouse Melanoma B16F10; 0.03 mg/kg intravenously", "result": "48*** %"}, {"measurement": "Number of Metastasized Nodes (mean ± standard error)", "setting": "Mouse Melanoma B16F10; 0.1 mg/kg intravenously", "result": "160 ± 28"}, {"measurement": "Metastasis Inhibition Rate (%)", "setting": "Mouse Melanoma B16F10; 0.1 mg/kg intravenously", "result": "52*** %"}, {"measurement": "Number of Metastasized Nodes (mean ± standard error)", "setting": "Mouse Melanoma B16F10; 0.3 mg/kg intravenously", "result": "167 ± 21"}, {"measurement": "Metastasis Inhibition Rate (%)", "setting": "Mouse Melanoma B16F10; 0.3 mg/kg intravenously", "result": "49*** %"}, {"measurement": "maximum inhibition rate of metastasis of B16F10 to mouse lungs", "setting": "Mouse Melanoma B16F10; maximum over doses 0.03-0.3 mg/kg intravenously", "result": 52, "unit": "%"}, {"measurement": "LD50", "setting": "Acute toxicity test; Intravenous, Female", "result": "13 (10-16) mg/kg"}, {"measurement": "LD50", "setting": "Acute toxicity test; Intravenous, Male", "result": "18 (15-22) mg/kg"}, {"measurement": "LD50", "setting": "Acute toxicity test; Oral, Female", "result": "12 (9-15) mg/kg"}, {"measurement": "LD50", "setting": "Acute toxicity test; Oral, Male", "result": "15 (13-19) mg/kg"}, {"measurement": "LD50", "setting": "Acute toxicity test; Subcutaneous, Female", "result": "7 ( 6- 9) mg/kg"}, {"measurement": "LD50", "setting": "Acute toxicity test; Subcutaneous, Male", "result": "13 (12-14) mg/kg"}, {"measurement": "pathological observation, main findings", "setting": "Acute toxicity test; animals that were killed, common to male and female and to all administration routes", "result": "slight to medium congestion in lung, slight to medium bleeding in glandular stomach and slight small intestine catarrh"}]}]}
